Reference: PMC6271500, “Bowman-Birk Protease Inhibitor from Vigna unguiculata Seeds Enhances the Action of Bradykinin-Related Peptides” (Molecules, 2014)
Where no end group is shown, it is not given here.

Tests used:
[1] = Dynamic light scattering, free peptides and free BTCI; format: physicochemical; details: 25 µM, 2 mM Tris-HCl pH 7.4, 37 °C
Method: (§1) The hydrodynamic properties of the BTCI through the complex formation with Bk and analogues were monitored using DLS technique with laser source operated at 800 nm on the DynaPro LSR model (Wyatt Technology Corporation, Santa Barbara, CA, USA). The internal temperature was controlled by a Peltier system coupled to the detector. The Bk, Bk-related peptides, BTCI and BTCI-Bk, BTCI-Bk-related peptides complexes, were incubated for 30 minutes in 2 mM Tris-HCl pH 7.4 and then centrifuged at 5000 g and filtered ([…]) before the DLS experiments. The average of 100 acquisitions for each measure was considered for BTCI (25 µM) and synthetic Bk-related peptides (25 µM) separately and subsequently for the BTCI-Bk complexes (1:1). The formation of complexes was analyzed at 37 °C, considering the relationship of the scattered light intensity signal and the hydrodynamic diameter of the samples, using the Dynamics V6 program (Wyatt Technology Corporation).

[2] = test system: guinea pig (Cavia porcellus) ileum; experiment: Smooth muscle constriction force assay, guinea pig ileum
Method: Male guinea pigs (Cavia porcellus) weighing between 200 and 300 g and fasted for 24 h were euthanized using an overdose of anesthetic at 120 mg/kg (ketamine and xylazine). The protocol was approved by the Committee on the Ethics of Animal Experiments of the Institute of Biology, University of Brasilia (Proc. Number 737402/2008). Segments of 2 cm from the terminal portion of the ileum were removed and washed in Tyrode’s solution (g/L: 8.00 NaCl,0.20 KCl, 0.20 CaCl2, 0.21 MgCl2), and attached to a glass rod that was immersed in a physiological bath chamber with a capacity of 10 mL containing Tyrode solution at 37 °C. In the opposite region, a thread of silk was attached to the F-60 isometric transducer connected to a polygraph (NARCO Bio-Systems, Houston, TX, USA). The bath was kept aerated constantly with carbogen (95% O2 + 5% CO2). Previously, as a control, smooth muscle response was analyzed using Bk from Sigma Aldrich. Experiments were done in triplicate, and constriction force was analyzed by addition of Bk and analogues in the absence or presence of BTCI, in three concentrations: 1, 5 or 10 µM. The hypotensive effects of the complexes were also evaluated in the presence of trypsin or chymotrypsin. After each experiment, the bath solution was exchanged three times in order to remove the drug used. Statistical analysis was carried out using the Paleontological Statistics (PAST) Software Package for Education and Data Analysis. A value of Student’s t-test p < 0.05 was considered to denote a significant difference.

[3] = test system: BTCI; experiment: Fluorescence quenching of BTCI by Bk-related peptides; format: binding, Vigna unguiculata; details: for Binding constant Kb (association) of BTCI in complex with peptide / Stern-Volmer quenching constant KSV of BTCI in complex with peptide: BTCI 25 µM, peptide 25-500 µM; for Stern-Volmer quenching constant KSV of BTCI in complex with peptide: excitation 295 nm, emission at 355 nm
Method: Fluorescence measurements were performed at pH 5.0, 7.4 and 9.0 and 25 °C using the Jasco FP-6500 spectrofluorimeter (Jasco Analytical Instruments) coupled to a Jasco ETC-273T Peltier system (Jasco Analytical Instruments) with water circulation. Both excitation and emission slit were fitted to 5.0 nm and the excitation and emission wavelength were 295 nm and 300–400 nm, respectively. The concentration of BTCI was 25 µM, whereas the concentration of Bk and Bk-related peptides varied from 25 to 500 µM. The BTCI in complex with peptides were investigated by fluorescence quenching as a function of pH. The averages of five fluorescence spectra were recorded and processed by the program Spectra Manager (Jasco Analytical Instruments). The fluorescence emissions were fitted according to the classic Stern-Volmer equation (Equation (2)): F0/F = 1 + KSV[Q] (2) where F and F0 are the fluorescence intensities in the presence and absence of quencher, respectively, KSV is Stern-Volmer constant and Q is the concentration of the quencher.
The binding constants for BTCI, Bk and Bk-related peptides interaction were calculated according to Equation (3): Log[(F0 − F)/F] = LogKb + nLog[Q] (3) where Kb is the binding constant and n is the number of binding sites per BTCI [47].

[4] = Cardiovascular effects of infusion of Bk and Bk-related peptides with BTCI or vehicle in anesthetized rats; format: in vivo, male Wistar rats; details: for aortic vasodilation (change in AVC) / change in mean arterial pressure (MAP) / renal vasodilation (change in RVC): from the baseline value, mean ± SEM, 6 experiments
Method: All experiments were conducted on adult male Wistar rats (280–350 g). They were obtained from the central animal house of the Federal University of Goiás. Experimental procedures were designed with strict adherence to the National Health Institute Guidelines for Care and Use of Laboratory Animals as approved by the Ethics Committee, Federal University of Goiás (034/12).
On the day of experiments, the rats were anesthetized with halothane (2%–3% in 100% O2; Cristália Ltda, Itapira, SP, Brazil) prior to the catheterization of the right femoral vein and artery. After the catheter placement, the rats were removed from the halothane and the anesthesia was maintained with urethane (1.2 g·kg^−1 b.wt., i.v.; Sigma-Aldrich Co.). The trachea was cannulated to reduce airway resistance. The body temperature was kept at 37 ± 0.5 °C with a thermostatically controlled heated table.
Renal blood flow (RBF) and aortic blood flow (ABF) were measured with an ultrasonic transit-time flowmeter (Transonic Systems, Inc., Ithaca, NY, USA). Data were recorded continuously with an analog-to-digital converter (PowerLab 4/25, ML845, AD Instruments, Bella Vista, Australia). Mean arterial pressure (MAP) was determined from the pulsatile signal. Aortic vascular conductance (AVC) and renal vascular conductance (RVC) were calculated by a ratio of ABF and RBF divided by MAP, and were expressed as percentage of baseline. Increasing doses of BTCI (0.3, 3, 30 and 300 µg·kg^−1, i.v.) were infused.
Results are presented as means ± S.E.M. The effects of infusion of Bk, Bk-related peptides and BTCI on cardiovascular parameters were analyzed by one-way ANOVA. […] A value of Student’s t-test p < 0.05 was considered to denote a significant difference.

[5] = test system: BTCI; experiment: Dynamic light scattering, BTCI-Bk complex formation; format: binding, Vigna unguiculata; details: BTCI 25 µM : peptide 25 µM (1:1), 30 min, 2 mM Tris-HCl pH 7.4, 37 °C
Method: as §1

[6] = test system: trypsin; experiment: Pretreatment of peptides with trypsin; format: in vitro ADME
[7] = target: Bk2, [Val]1[Thr]6-bradykinyl-Gln-Ser relative to bradykinin: R1V;S6T; C-terminal extension Gln10-Ser11; experiment: Intrinsic tryptophan (Trp82) fluorescence quenching titration; excitation 295 nm, emission 300-400 nm (analysed at 355 nm); details: 25 °C, not stated for the fluorescence assays at pH 5.0, 7.4 and 9.0 (2 mM Tris-HCl pH 7.4 is given only for DLS and CD)
[8] = target: Bradykinin (Bk) (UniProt P01042); experiment: as above; details: 25 °C, not stated for the fluorescence assays at pH 5.0, 7.4 and 9.0 (2 mM Tris-HCl pH 7.4 is given only for DLS and CD)
[9] = target: Bk1, [Val]1[Thr]6-bradykinyl-Val-Asp relative to bradykinin: R1V;S6T; C-terminal extension Val10-Asp11; experiment: as above; details: 25 °C, not stated for the fluorescence assays at pH 5.0, 7.4 and 9.0 (2 mM Tris-HCl pH 7.4 is given only for DLS and CD)
[10] = peptide 120 µg·kg^−1 + BTCI 3 µg·kg^−1, i.v.
[11] = peptide 120 µg·kg^−1 i.v. + BTCI 3 µg·kg^−1 i.v.
[12] = peptide 120 µg·kg^−1 i.v., without BTCI

Sequence of UniProt P01042 (P01042 whole entry, looked up): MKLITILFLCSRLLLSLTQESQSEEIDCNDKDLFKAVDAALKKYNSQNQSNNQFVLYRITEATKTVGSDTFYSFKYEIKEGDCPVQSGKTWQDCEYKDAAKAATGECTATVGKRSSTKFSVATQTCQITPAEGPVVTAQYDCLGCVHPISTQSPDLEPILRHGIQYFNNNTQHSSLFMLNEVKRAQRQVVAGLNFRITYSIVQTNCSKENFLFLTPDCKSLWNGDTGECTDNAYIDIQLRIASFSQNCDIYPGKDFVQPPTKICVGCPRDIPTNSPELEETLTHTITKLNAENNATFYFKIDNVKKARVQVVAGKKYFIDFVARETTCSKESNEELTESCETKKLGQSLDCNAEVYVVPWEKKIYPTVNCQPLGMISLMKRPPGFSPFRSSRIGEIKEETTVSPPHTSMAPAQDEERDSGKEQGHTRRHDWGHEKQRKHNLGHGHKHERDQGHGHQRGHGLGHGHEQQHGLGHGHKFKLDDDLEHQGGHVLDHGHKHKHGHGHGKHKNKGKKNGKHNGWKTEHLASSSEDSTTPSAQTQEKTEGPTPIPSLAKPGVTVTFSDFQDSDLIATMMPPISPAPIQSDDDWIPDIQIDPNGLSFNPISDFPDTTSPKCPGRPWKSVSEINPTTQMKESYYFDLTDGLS

Substance: Bradykinin [Bk, reference compound]
- polydispersity, peptide [1]: lower than 0.15
- effect of BTCI on Bk-induced smooth muscle contraction ([2]; Bk 5.0 µM): slightly increased the smooth muscle contraction
- effect of BTCI on Bk-induced smooth muscle contraction ([2]; Bk 10.0 µM): the same effect only when BTCI inhibited trypsin
- smooth muscle contraction ([2]; free peptide, 1, 5, 10 µM, 37 °C, triplicate): able to induce smooth muscle contraction in a concentration-responsive manner
- smooth muscle contraction in association with BTCI in the presence of serine proteases ([2]; with BTCI and trypsin or chymotrypsin, 1.0, 5.0, 10.0 µM): able to induce smooth muscle contraction in a concentration-responsive manner even in association with BTCI in the presence of serine proteases
- binding sites (n) per BTCI molecule ([3]; pH 5.0, 25 °C): 0.88
- Binding constant Kb (association) of BTCI in complex with peptide ([3]; pH 5.0, 25 °C): 210 M⁻¹
- Stern-Volmer quenching constant KSV of BTCI in complex with peptide ([3]; pH 5.0, 25 °C): 502 M⁻¹
- binding sites (n) per BTCI molecule ([3]; pH 7.4, 25 °C): 1.39
- Binding constant Kb (association) of BTCI in complex with peptide ([3]; pH 7.4, 25 °C): 9680 M⁻¹
- Stern-Volmer quenching constant KSV of BTCI in complex with peptide ([3]; pH 7.4, 25 °C): 553 M⁻¹
- binding sites (n) per BTCI molecule ([3]; pH 9.0, 25 °C): 1.06
- Binding constant Kb (association) of BTCI in complex with peptide ([3]; pH 9.0, 25 °C): 710 M⁻¹
- Stern-Volmer quenching constant KSV of BTCI in complex with peptide ([3]; pH 9.0, 25 °C): 468 M⁻¹
- fluorescence intensity of BTCI (Trp^82) on addition of peptide ([3]; peptide 25 to 500 µM): progressive decrease in fluorescence intensity
- effect of association with BTCI on aortic vasodilation [4, 10]: potentiated
- effect of association with BTCI on renal vasodilation [4, 10]: potentiated renal
- aortic vasodilation (change in AVC) [4, 11]: 16 ± 1.4%
- change in mean arterial pressure (MAP) [4, 11]: −10 ± 1.1 mmHg
- renal vasodilation (change in RVC) [4, 11]: 12 ± 1.1%
- aortic vasodilation (change in AVC) [4, 12]: 9 ± 1.6%
- change in mean arterial pressure (MAP) [4, 12]: −7 ± 1.2 mmHg
- renal vasodilation (change in RVC) [4, 12]: 9 ± 2%
- hydrodynamic diameter of BTCI in the presence of peptide [5]: increased from 1.7 nm to 3.3 nm

Substance: VPPGFTPFRVD [Bk1, [Val]^1[Thr]^6-bradykinyl-Val-Asp]
- product released by trypsin pretreatment in vitro ([6]; HPLC and mass spectrometry, data not shown): release the active Bk fragment
- cleavage by trypsin (site) ([6]; pretreatment with trypsin): cleaved on Arg^9-Val^10

Substance: Black-eyed pea trypsin and chymotrypsin inhibitor (BTCI), Bowman-Birk inhibitor
- Kb ([7]; pH 5.0): 0.59 ×10^3 M^−1
- Kb ([7]; pH 7.4): 0.22 ×10^3 M^−1
- Kb ([7]; pH 9.0): 1.81 ×10^3 M^−1
- Kb ([8]; pH 5.0): 0.21 ×10^3 M^−1
- Kb ([8]; pH 7.4): 9.68 ×10^3 M^−1
- Kb ([8]; pH 9.0): 0.71 ×10^3 M^−1
- Kb ([9]; pH 5.0): 0.84 ×10^3 M^−1
- Kb ([9]; pH 7.4): 1.02 ×10^3 M^−1
- Kb ([9]; pH 9.0): 0.23 ×10^3 M^−1
